Drawing on US6103766A, “Phenylsulfonamide-phenylethylamines useful as dopamine receptors” (Pharmacia & Upjohn Company, priority 1999, dated 2000), this text covers Ki for ten molecules.

In one experiment the target is T1, dopamine D3 receptor (Rattus norvegicus, UniProt P19020).
T1 construct: expressed in transfected cells; host or cells: CHO-K1
The experiment is described as follows: Competition binding at cloned rat dopamine D3 receptor (D3-DOP-CLONE) with [3H]-spiperone. To be noted: cloned rat receptor in CHO-K1 cells, [3H]-spiperone (107 Ci/mmol, 0.5 nM), eleven dilutions. As for the experimental part: (§1) Competition binding experiments employed eleven dilutions of test compounds of Formula I competing with [^3 H]-5-(dipropylamino)-5,6-dihydro-4H-imidazo(4,5,1-ij)quinolin-2(1H)-one (R-enantiomer) ("86170") (62 Ci/mmol, 2nM) and [^3 H]-spiperone ("SPI") (107 Ci/mmol, 0.5 nM) for D2 and D3 binding sites, respectively. (Lahti, R. A., Eur. J. Pharmacol., 202, 289 (1991)) In each experiment, cloned rat receptors expressed in CHO-K1 cells were used. (Chio, C. L., Nature, 343, 266 (1990); and Huff, R. M., Mol. Pharmacol. 45, 51-60 (1993)).

Another experiment has as its target T2, dopamine D2 receptor (Rattus norvegicus, UniProt P61169).
T2 construct: expressed in transfected cells; host or cells: CHO-K1
The experiment is described as follows: Competition binding at cloned rat dopamine D2 receptor (D2-DOP-CLONE) with [3H]-86170. Conditions: cloned rat receptor in CHO-K1 cells, [3H]-86170 (62 Ci/mmol, 2 nM), eleven dilutions, read-out: Ki (Receptor binding, IC50 values). As for the experimental part:
as §1

The mark [1] stands for this setting: Ki (Receptor binding, IC50 values).
[2] abbreviates: read-out: Ki (Receptor binding, IC50 values).

Where “and” joins values, the source holds several entries; their conditions need not be identical. Equal values may be shown once. Read-outs that look alike come from different tables or passages of the source.

T1 sequence (P19020 whole entry): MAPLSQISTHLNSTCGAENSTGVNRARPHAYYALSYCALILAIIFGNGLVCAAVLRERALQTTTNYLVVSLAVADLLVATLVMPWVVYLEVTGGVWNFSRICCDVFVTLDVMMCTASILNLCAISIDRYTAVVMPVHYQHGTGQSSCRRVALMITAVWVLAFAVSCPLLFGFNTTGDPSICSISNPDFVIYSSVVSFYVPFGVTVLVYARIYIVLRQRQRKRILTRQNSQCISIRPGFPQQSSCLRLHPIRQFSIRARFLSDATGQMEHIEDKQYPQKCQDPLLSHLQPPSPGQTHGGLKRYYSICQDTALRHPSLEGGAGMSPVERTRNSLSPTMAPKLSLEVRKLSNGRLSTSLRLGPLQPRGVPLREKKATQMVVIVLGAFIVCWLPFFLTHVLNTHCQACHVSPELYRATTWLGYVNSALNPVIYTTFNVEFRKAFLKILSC
T2 sequence (P61169 whole entry): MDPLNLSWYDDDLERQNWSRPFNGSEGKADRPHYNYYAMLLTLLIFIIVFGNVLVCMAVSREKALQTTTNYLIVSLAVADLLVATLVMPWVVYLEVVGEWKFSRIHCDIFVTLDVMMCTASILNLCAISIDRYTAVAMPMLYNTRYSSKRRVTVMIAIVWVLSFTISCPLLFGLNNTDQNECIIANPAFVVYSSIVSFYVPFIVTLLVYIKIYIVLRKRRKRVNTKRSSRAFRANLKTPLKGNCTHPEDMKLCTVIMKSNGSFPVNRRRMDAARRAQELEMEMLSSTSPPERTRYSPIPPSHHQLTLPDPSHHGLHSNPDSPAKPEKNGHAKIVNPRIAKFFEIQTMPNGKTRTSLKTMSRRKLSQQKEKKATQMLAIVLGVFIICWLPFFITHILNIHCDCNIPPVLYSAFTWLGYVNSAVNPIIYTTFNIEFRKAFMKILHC

`CCCN(CCC)CCc1ccc(NS(=O)(=O)c2ccc(Cl)cc2)cc1` [Example 1, 2-[4-(4-chlorobenzenesulfonamido)phenyl]ethyl-1-dipropylamine]: the Ki on dopamine D3 receptor (setting [1]) stood at 3.7 nM; on dopamine D2 receptor, 629 nM.

For `CCCN(CCC)CCc1ccc(NS(=O)(=O)c2ccc(NC(C)=O)cc2)cc1` [Example 2, 2-[4-(4-acetamidobenzenesulfonamido)phenyl]ethyl-1-dipropylamine], the figures for the Ki at dopamine D3 receptor (setting [2]) and on dopamine D2 receptor were 34 nM and 1070 nM, respectively.

As to `CCCNCCc1ccc(NS(=O)(=O)c2ccc(Cl)cc2Cl)cc1` [Example 3, 2-[4-(2,4-dichlorobenzenesulfonamido)phenyl]ethyl-1-propylamine], the Ki on dopamine D3 receptor (setting [2]) is 14 nM and 26 nM; on dopamine D2 receptor, 760 nM.

Turning to `CCCNCCc1ccc(NS(=O)(=O)c2ccc(Cl)cc2)cc1` [Example 4, 2-[4-(4-chlorobenzenesulfonamido)phenyl]ethyl-1-propylamine], the Ki on dopamine D3 receptor (setting [1]) worked out at 18 nM; at dopamine D2 receptor, 677 nM.

Turning to `CCCNCCc1ccc(NS(=O)(=O)c2ccc(OC(F)(F)F)cc2)cc1` [Example 5, 2-[4-(4-trifluoromethoxybenzenesulfonamido)phenyl]ethyl-1-propylamine], the Ki came to 28 nM on dopamine D3 receptor (setting [2]) and 2390 nM on dopamine D2 receptor.

`CCCNCCc1ccc(NS(=O)(=O)c2ccc(F)cc2Cl)cc1` [Example 6, 2-[4-(2-chloro-4-fluorobenzenesulfonamido)phenyl]ethyl-1-propylamine]: the Ki at dopamine D3 receptor (setting [2]) stood at 165 nM; on dopamine D2 receptor, 2180 nM.

Turning to `CCCNCCc1ccc(NS(=O)(=O)c2ccc(Br)cc2)cc1` [Example 7, 2-[4-(4-bromobenzenesulfonamido)phenyl]ethyl-propylamine], the results for the Ki at dopamine D3 receptor (setting [1]) and at dopamine D2 receptor were 14 nM and 623 nM, respectively.

Turning to `CCCNCCc1ccc(NS(=O)(=O)c2ccc(C(F)(F)F)cc2)cc1` [Example 8, 2-[4-[(4-trifluoromethyl)benzenesulfonamido]phenyl]ethyl-1-propylamine], the Ki on dopamine D3 receptor (setting [2]) is 33 nM; at dopamine D2 receptor, 1530 nM.

For the molecule `CCCNCCc1cccc(NS(=O)(=O)c2ccccc2F)c1` [Example 9, 2-[3-(2-fluorobenzenesulfonamido)phenyl]ethyl-1-propylamine], the values for the inhibitory constant (Ki) at dopamine D3 receptor (setting [1]) and at dopamine D2 receptor were 54 nM and 645 nM, respectively.

As for `CCCNCCc1cccc(NS(=O)(=O)c2cccc(Cl)c2)c1` [Example 10, 2-[3-(3-chlorobenzenesulfonamido)phenyl]ethyl-1-propylamine], the Ki worked out at 111 nM at dopamine D3 receptor (setting [2]) and 1080 nM at dopamine D2 receptor.
